Experiments:
Test in all cases: selective drug sensitivity score (sDSS, relative to normal bone marrow) (sDSS (score)); higher = more potent and effective on the cell line relative to normal bone marrow cells
Details in all cases: 72 h
ALL-PO = system: ALL-PO
MN-60 = system: MN-60
COG-LL-317 = system: COG-LL-317
KOPN-8 = system: KOPN-8
COG-LL-394h = system: COG-LL-394h
MOLT-14 = system: MOLT-14
MOLT-4 = system: MOLT-4
CCRF-HSB2 = system: CCRF-HSB2
PEER = system: PEER
NALM-6 = system: NALM-6
MHH-CALL-4 = system: MHH-CALL-4
RCH-ACV = system: RCH-ACV
P12-ICHIKAWA = system: P12-ICHIKAWA
KASUMI-9 = system: KASUMI-9
COG-LL-402h = system: COG-LL-402h
CCRF-CEM = system: CCRF-CEM
COG-LL-332h = system: COG-LL-332h
HAL-01 = system: HAL-01
RPMI-8402 = system: RPMI-8402
KASUMI-10 = system: KASUMI-10
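Further: ALL cell lines in 384-well plates, five doses spanning 10,000-fold, each plate scaled between vehicle and 100 µmol/L benzalkonium chloride controls, sDSS an adapted area-under-curve metric.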

Row | Structure (SMILES) | selective drug sensitivity score (ALL-PO) | selective drug sensitivity score (MN-60) | selective drug sensitivity score (COG-LL-317) | selective drug sensitivity score (KOPN-8) | selective drug sensitivity score (COG-LL-394h) | selective drug sensitivity score (MOLT-14) | selective drug sensitivity score (MOLT-4) | selective drug sensitivity score (CCRF-HSB2) | selective drug sensitivity score (PEER) | selective drug sensitivity score (NALM-6) | selective drug sensitivity score (MHH-CALL-4) | selective drug sensitivity score (RCH-ACV) | selective drug sensitivity score (P12-ICHIKAWA) | selective drug sensitivity score (KASUMI-9) | selective drug sensitivity score (COG-LL-402h) | selective drug sensitivity score (CCRF-CEM) | selective drug sensitivity score (COG-LL-332h) | selective drug sensitivity score (HAL-01) | selective drug sensitivity score (RPMI-8402) | selective drug sensitivity score (KASUMI-10)
1 | C[C@@H]1COCCN1c1cc(C2([S@](C)(=N)=O)CC2)nc(-c2cc[nH]c3nccc2-3)n1 [AZD6738] (top concentration 25000 nM) | 4.58 | -1.02 | 16 | 15.5 | -2.72 | 11.5 | 8.78 | 4.58 | 5.88 | 7.28 | 5.48 | 15.9 | 9.98 | 8.38 | 7.68 | 10.8 | 8.08 | 9.58 | 8.98 | 8.08
2 | NC1(C(=O)N[C@@H](CCO)c2ccc(Cl)cc2)CCN(c2ncnc3[nH]ccc23)CC1 [AZD-5363] (top concentration 10000 nM) | 5.82 | 0.12 | 8.82 | 6.72 | -1.08 | -1.88 | 7.42 | 4.02 | -0.88 | 7.12 | 5.52 | 10.9 | 3.52 | 3.52 | 5.62 | 9.32 | 4.02 | 4.02 | 3.52 | 1.62
3 | C[C@@H](Nc1cc(F)cc(F)c1)c1cc(C(=O)N(C)C)cc2c(=O)cc(N3CCOCC3)oc12 [AZD-8186] (top concentration 1000 nM) | 0.34 | -0.26 | -0.26 | 3.44 | -0.26 | -0.26 | -0.06 | 1.64 | -0.26 | 5.14 | 4.34 | 14.9 | -0.26 | 6.04 | 5.14 | -0.26 | -0.26 | 8.14 | 0.44 | -0.26
4 | COc1cccc2c1C(=O)c1c(O)c3c(c(O)c1C2=O)C[C@@](O)(/C(CO)=N/NC(=O)CCCCCN1C(=O)C=CC1=O)C[C@@H]3O[C@H]1C[C@H](N)[C@H](O)[C@H](C)O1 [Aldoxorubicin] (top concentration 1000 nM) | -2.06 | 0.84 | 14.8 | 14.2 | 8.24 | 12.9 | 11.8 | 14.8 | -3.06 | 4.34 | 8.14 | 11.7 | 5.04 | 8.64 | 14.3 | 7.24 | 12.1 | 0.34 | 5.34 | 9.24
5 | COc1cc(Nc2ncc3c(n2)-c2ccc(Cl)cc2C(c2c(F)cccc2OC)=NC3)ccc1C(=O)O [Alisertib] (top concentration 10000 nM) | 15.6 | -3.42 | 29.6 | 21.3 | 2.28 | 21 | 21.8 | 26.4 | 26.6 | 20.1 | -5.62 | 24.3 | 22.6 | 25 | 16.1 | 21.5 | 24.8 | 17.8 | 10.2 | 14.6
6 | Cc1nc(NC(=O)N2CCC[C@H]2C(N)=O)sc1-c1ccnc(C(C)(C)C(F)(F)F)c1 [Alpelisib] (top concentration 2500 nM) | 3.28 | 1.18 | -0.42 | 5.38 | 0.78 | -0.82 | 0.88 | 1.68 | -0.42 | 3.88 | -0.22 | 8.98 | -0.32 | 1.18 | 4.18 | 0.48 | 0.18 | 0.78 | -0.02 | -0.12
7 | CCN(CC)CCNC(=O)c1c(C)[nH]c(/C=C2\C(=O)Nc3ccc(-c4csc(-c5ccccc5)n4)cc32)c1C [Amcasertib] (top concentration 10000 nM) | 6.7 | -0.2 | 7.7 | -1.1 | 1.3 | 3.4 | -2.4 | 3.1 | 4 | 0 | 2.2 | 3.3 | 0 | -0.2 | -3.2 | 6.7 | 7.2 | 7.4 | -1.5 | 5.2
8 | COc1c(C)cnc(Cn2cnc3c(Cl)nc(N)nc32)c1C [BIIB021] (top concentration 10000 nM) | 5.88 | -2.62 | 10.2 | 12 | -4.02 | 7.28 | 11.8 | 10.8 | 3.58 | 7.88 | 1.28 | 9.58 | 2.28 | -1.22 | 5.78 | 7.88 | 8.98 | 3.98 | 0.68 | 8.78
9 | O=C(/C=C/c1cccc(S(=O)(=O)Nc2ccccc2)c1)NO [Belinostat] (top concentration 10000 nM) | 11.4 | 1.8 | 12.9 | 17.8 | 2.1 | 12.2 | 7.6 | 10.2 | 7.8 | 7.4 | 7.5 | 14.3 | 8.6 | 8.9 | 12.6 | 8.7 | 7.9 | 5.6 | 7.3 | 7.6
10 | Nc1cc(C(F)(F)F)c(-c2cc(N3CCOCC3)nc(N3CCOCC3)n2)cn1 [Buparlisib] (top concentration 10000 nM) | 9.58 | 2.68 | 1.08 | 7.28 | 0.38 | 5.48 | 4.38 | 4.18 | 6.48 | 4.78 | 2.78 | 13.3 | 3.28 | 6.58 | 5.58 | 5.28 | 3.58 | 4.98 | 6.88 | 2.48
11 | CCS(=O)(=O)N1CCN(c2ccc(Nc3ncc(C(N)=O)c(NC4CC4)n3)cc2)CC1 [Cerdulatinib] (top concentration 10000 nM) | 6.04 | -11.9 | -7.66 | 3.14 | -8.56 | -3.16 | -7.46 | 1.34 | -0.16 | 1.44 | -5.46 | 13.3 | -4.46 | -1.36 | -2.56 | -6.26 | -4.26 | -11.9 | -5.56 | 0.24
12 | CC(C)[C@H]1C(=O)N[C@@H](CCCNC(=N)N)C(=O)NCC(=O)N[C@@H](CC(=O)O)C(=O)N[C@H](Cc2ccccc2)C(=O)N1C [Cilengitide] (top concentration 10000 nM) | 0 | 0 | 0 | 13.8 | 0 | 0 | 0 | 0 | 0 | 0 | 5.5 | 0 | 0 | 0 | 0 | 0 | 0 | 6.5 | 0 | 0
13 | CC(C)(C)c1nc(-c2cccc(NS(=O)(=O)c3c(F)cccc3F)c2F)c(-c2ccnc(N)n2)s1 [Dabrafenib] (top concentration 2500 nM) | -0.22 | -0.92 | 0.18 | 8.48 | -0.22 | 1.48 | -1.52 | 4.48 | 3.48 | -0.52 | 3.08 | 0.88 | 1.18 | 3.58 | 0.48 | 0.58 | 1.68 | 1.18 | -1.12 | 0.58
14 | C[C@H]1O[C@@H](O[C@H]2[C@@H](O)C[C@H](O[C@H]3[C@@H](O)C[C@H](O[C@H]4CC[C@@]5(C)[C@H](CC[C@@H]6[C@@H]5C[C@@H](O)[C@]5(C)[C@@H](C7=CC(=O)OC7)CC[C@]65O)C4)O[C@@H]3C)O[C@@H]2C)C[C@H](O)[C@@H]1O [Digoxin] (top concentration 1000 nM) | 4 | 2.7 | 8.7 | 12.9 | 4.1 | 8 | 12.3 | 6.6 | 5.5 | 10.5 | 5.6 | 8.1 | 8.2 | 7.1 | 6.4 | 8.9 | 9.8 | 9.9 | 8.3 | 10
15 | C[C@H](Nc1ncnc2nc[nH]c12)c1cc2cccc(Cl)c2c(=O)n1-c1ccccc1 [Duvelisib] (top concentration 500 nM) | 0.86 | -0.94 | 1.96 | 0.16 | -0.84 | -0.94 | -0.94 | -0.44 | -0.94 | 4.36 | -0.34 | 21 | -0.44 | 3.36 | 4.96 | 4.36 | 2.46 | 9.76 | -0.94 | -0.94
16 | NC(=O)/C(=C/n1cnc(-c2cc(C(F)(F)F)cc(C(F)(F)F)c2)n1)c1cncnc1 [Eltanexor] (top concentration 10000 nM) | 11.4 | 0.06 | 14.7 | 14.2 | 4.66 | 15.4 | 11.4 | 12 | 7.56 | 10.6 | 6.76 | 12.7 | 7.96 | 11.1 | 12.1 | 9.66 | 9.46 | 5.46 | 9.36 | 2.36
17 | COC(=O)N[C@@H](C)CNc1nccc(-c2cn(C(C)C)nc2-c2cc(Cl)cc(NS(C)(=O)=O)c2F)n1 [Encorafenib] (top concentration 1000 nM) | 0 | 0 | 0 | 16.2 | 0.2 | 0 | 0 | 1.8 | 0.9 | 3.5 | 0 | 1 | 1.7 | 1.4 | 0 | 0.2 | 0 | 0 | 0 | 0
